Test results taken from the supplement of paper PMC10307832.

Experiments:
Assay in all cases: relative viability (nuclei count vs DMSO), 5 days (fraction); higher = more cells survive
Dactolisib + Alpelisib = compound: Cn1c(=O)n(-c2ccc(C(C)(C)C#N)cc2)c2c3cc(-c4cnc5ccccc5c4)ccc3ncc21 [Dactolisib] + Cc1nc(NC(=O)N2CCC[C@H]2C(N)=O)sc1-c1ccnc(C(C)(C)C(F)(F)F)c1 [Alpelisib] (partner 2 µM)
Outline: (§1)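 Medians of duplicate plates are given as relative viability. That measure is the nuclei count in treated wells divided by the count in vehicle wells. Counts were taken on 4× images of lung cancer cell lines in 1536-well plates, 5 days after pin-tool dosing the day after seeding with one drug alone or a fixed anchor-drug dose plus five library-drug doses (not always all listed) in √10 steps.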

Dactolisib + Phenformin = compound: Cn1c(=O)n(-c2ccc(C(C)(C)C#N)cc2)c2c3cc(-c4cnc5ccccc5c4)ccc3ncc21 [Dactolisib] + N=C(N)NC(=N)NCCc1ccccc1 [Phenformin] (partner 250 µM)
Outline: as §1

Dactolisib + Palbociclib = compound: Cn1c(=O)n(-c2ccc(C(C)(C)C#N)cc2)c2c3cc(-c4cnc5ccccc5c4)ccc3ncc21 [Dactolisib] + CC(=O)c1c(C)c2cnc(Nc3ccc(N4CCNCC4)cn3)nc2n(C2CCCC2)c1=O [Palbociclib] (partner 0.5 µM)
Outline: as §1

Dactolisib + Tozasertib = compound: Cn1c(=O)n(-c2ccc(C(C)(C)C#N)cc2)c2c3cc(-c4cnc5ccccc5c4)ccc3ncc21 [Dactolisib] + Cc1cc(Nc2cc(N3CCN(C)CC3)nc(Sc3ccc(NC(=O)C4CC4)cc3)n2)n[nH]1 [Tozasertib] (partner 0.1 µM)
Outline: as §1

Cell Line	relative viability (Dactolisib + Alpelisib; first compound 0.002 µM)	relative viability (Dactolisib + Alpelisib; first compound 0.006325 µM)	relative viability (Dactolisib + Alpelisib; first compound 0.02 µM)	relative viability (Dactolisib + Alpelisib; first compound 0.06325 µM)	relative viability (Dactolisib + Alpelisib; first compound 0.2 µM)	relative viability (Dactolisib + Phenformin; first compound 0.002 µM)	relative viability (Dactolisib + Phenformin; first compound 0.006325 µM)	relative viability (Dactolisib + Phenformin; first compound 0.02 µM)	relative viability (Dactolisib + Phenformin; first compound 0.06325 µM)	relative viability (Dactolisib + Phenformin; first compound 0.2 µM)	relative viability (Dactolisib + Palbociclib; first compound 0.002 µM)	relative viability (Dactolisib + Palbociclib; first compound 0.006325 µM)	relative viability (Dactolisib + Palbociclib; first compound 0.02 µM)	relative viability (Dactolisib + Palbociclib; first compound 0.06325 µM)	relative viability (Dactolisib + Palbociclib; first compound 0.2 µM)	relative viability (Dactolisib + Tozasertib; first compound 0.002 µM)	relative viability (Dactolisib + Tozasertib; first compound 0.006325 µM)	relative viability (Dactolisib + Tozasertib; first compound 0.02 µM)	relative viability (Dactolisib + Tozasertib; first compound 0.06325 µM)	relative viability (Dactolisib + Tozasertib; first compound 0.2 µM)
NCI-H1734	0.686	0.582	0.586	0.361	0.233	0.428	0.333	0.353	0.238	0.203	0.344	0.356	0.314	0.228	0.201	0.212	0.259	0.279	0.23	0.198
HARA	1.15	0.78	0.809	0.594	0.206	0.467	0.441	0.51	0.405	0.211	0.304	0.233	0.301	0.233	0.188	0.103	0.116	0.103	0.112	0.0818
HCC-15	0.941	0.832	0.874	0.417	0.38	0.482	0.488	0.449	0.291	0.184	0.778	0.723	0.715	0.471	0.28	0.388	0.386	0.449	0.326	0.215
LCLC-97TM1	0.304	0.218	0.186	0.134	0.151	0.452	0.444	0.42	0.317	0.179	0.217	0.252	0.194	0.161	0.0966	0.189	0.15	0.151	0.171	0.111
RERF-LC-KJ	0.806	0.818	0.742	0.543	0.551	0.42	0.415	0.428	0.298	0.302	1.19	1.12	0.863	0.438	0.452	0.535	0.551	0.599	0.279	0.397
NCI-H1651	1.11	0.79	0.69	0.461	0.422	0.333	0.279	0.305	0.243	0.204	0.532	0.487	0.463	0.348	0.231	0.693	0.677	0.564	0.475	0.286
NCI-H2170	0.787	0.754	0.706	0.479	0.26	0.454	0.433	0.48	0.434	0.284	0.379	0.385	0.316	0.205	0.167	0.753	0.735	0.62	0.511	0.252
NCI-H2023	0.54	0.56	0.553	0.147	0.153	0.43	0.361	0.309	0.14	0.122	0.395	0.297	0.274	0.106	0.0901	0.351	0.312	0.313	0.109	0.0881
LC-2-ad	0.916	–	0.817	0.64	0.533	0.601	0.572	0.539	0.42	0.391	0.434	0.48	0.51	0.454	0.426	0.454	0.412	0.43	0.363	0.333
NCI-H1437	1	0.991	0.918	0.836	0.81	0.27	0.341	0.323	0.296	0.289	0.321	0.328	0.369	0.274	0.215	0.467	0.425	0.415	0.518	0.382
SW 1573	0.94	0.784	0.682	0.322	0.33	0.382	0.238	0.31	0.139	0.175	0.395	0.324	0.225	0.154	0.116	0.153	0.2	0.232	0.154	0.0965
H3255	0.767	0.709	0.653	0.481	0.314	0.386	0.354	0.388	0.328	0.348	0.332	0.305	0.321	0.313	0.314	0.525	0.521	0.682	0.51	0.432
SK-MES-1	1.06	0.842	0.833	0.474	0.406	0.667	0.662	0.627	0.388	0.212	0.297	0.298	0.269	0.247	0.214	0.989	0.84	0.876	0.32	0.264
NCI-H2087	1.17	0.994	0.805	0.574	0.668	0.622	0.454	0.378	0.286	0.123	0.275	0.232	0.221	0.172	0.142	0.328	0.248	0.243	0.176	0.192
HCC-366	0.329	0.369	0.401	0.175	0.134	0.602	0.625	0.587	0.397	0.151	0.402	0.349	0.232	0.102	0.0378	0.11	0.101	0.0652	0.0776	0.0308
NCI-H727	0.601	0.525	0.4	0.291	0.304	0.653	0.588	0.528	0.359	0.309	–	0.693	0.658	0.581	0.513	0.585	0.587	0.561	0.451	0.407

Cell Line	relative viability (Dactolisib + Alpelisib; first compound 0.002 µM)	relative viability (Dactolisib + Alpelisib; first compound 0.006325 µM)	relative viability (Dactolisib + Alpelisib; first compound 0.02 µM)	relative viability (Dactolisib + Alpelisib; first compound 0.06325 µM)	relative viability (Dactolisib + Alpelisib; first compound 0.2 µM)	relative viability (Dactolisib + Phenformin; first compound 0.002 µM)	relative viability (Dactolisib + Phenformin; first compound 0.006325 µM)	relative viability (Dactolisib + Phenformin; first compound 0.02 µM)	relative viability (Dactolisib + Phenformin; first compound 0.06325 µM)	relative viability (Dactolisib + Phenformin; first compound 0.2 µM)	relative viability (Dactolisib + Palbociclib; first compound 0.002 µM)	relative viability (Dactolisib + Palbociclib; first compound 0.006325 µM)	relative viability (Dactolisib + Palbociclib; first compound 0.02 µM)	relative viability (Dactolisib + Palbociclib; first compound 0.06325 µM)	relative viability (Dactolisib + Palbociclib; first compound 0.2 µM)	relative viability (Dactolisib + Tozasertib; first compound 0.002 µM)	relative viability (Dactolisib + Tozasertib; first compound 0.006325 µM)	relative viability (Dactolisib + Tozasertib; first compound 0.02 µM)	relative viability (Dactolisib + Tozasertib; first compound 0.06325 µM)	relative viability (Dactolisib + Tozasertib; first compound 0.2 µM)
LU99A	0.483	0.333	0.273	0.242	0.192	0.871	0.761	0.682	0.443	0.258	0.419	0.37	0.297	0.216	0.181	0.265	0.257	0.283	0.224	0.185
NCI-H647	1.33	0.811	0.543	0.164	0.125	0.536	0.449	0.429	0.156	0.105	0.398	0.294	0.196	0.0842	0.0654	0.265	0.235	0.19	0.099	0.112
HCC-78	0.358	0.33	0.282	0.247	0.198	0.912	0.771	0.63	0.495	0.319	0.46	0.453	0.479	0.475	0.441	0.457	0.418	0.414	0.361	0.284
NCI-H1755	0.944	0.898	0.872	0.655	0.372	0.647	0.617	0.612	0.549	0.476	0.482	0.423	0.42	0.388	0.38	0.613	0.555	0.577	0.542	0.419
NCI-H3122	0.792	0.729	0.652	0.486	0.36	0.381	0.385	0.416	0.378	0.317	0.18	0.198	0.173	0.16	0.137	0.427	0.361	0.425	0.352	0.16
PC-14	0.946	0.932	0.887	0.407	0.252	0.642	0.523	0.45	0.29	0.144	0.654	0.487	0.446	0.0827	0.0725	0.576	0.679	0.629	0.215	0.125
NCI-H2347	1.2	1.09	0.927	0.689	0.399	0.731	0.409	0.381	0.329	0.264	0.505	0.448	0.401	0.402	0.358	0.676	0.527	0.535	0.394	0.264
NCI-H2228	0.786	0.461	0.421	0.198	0.234	0.302	0.272	0.179	0.192	0.164	0.882	0.725	0.638	0.197	0.147	0.256	0.294	0.191	0.112	0.0991
NCI-H1793	0.588	0.4	0.241	0.21	0.157	0.477	0.294	0.228	0.202	0.187	0.289	0.212	0.21	0.212	0.19	0.329	0.242	0.199	0.126	0.106
EKVX	0.937	0.878	0.759	0.463	0.369	0.26	0.222	0.229	0.225	0.215	0.431	0.386	0.324	0.241	0.197	0.426	0.366	0.423	0.242	0.179
HOP-62	1.19	1.09	0.876	0.468	0.323	0.736	0.654	0.655	0.405	0.356	0.467	0.45	0.383	0.288	0.147	0.423	0.383	0.473	0.306	0.309
NCI-H2126	0.751	0.702	0.639	0.518	0.425	0.562	0.513	0.534	0.435	0.366	0.369	0.359	0.33	0.352	0.316	0.813	0.829	0.814	0.536	0.452
NCI-H358	0.951	0.786	0.718	0.3	0.18	0.317	0.302	0.286	0.221	0.111	0.141	0.146	0.134	0.112	0.096	0.114	0.0941	0.0945	0.0839	0.0896
EPLC-272H	0.961	0.752	0.779	0.527	0.465	0.351	0.25	0.268	0.228	0.259	0.331	0.299	0.341	0.317	0.287	0.348	0.221	0.243	0.207	0.193
PC-3 [JPC-3]	1.15	1.02	0.977	0.78	0.641	0.494	0.485	0.475	0.47	0.469	0.596	0.544	0.59	0.511	0.418	0.967	0.896	0.803	0.831	0.608
NCI-H650	1.19	0.964	1.01	0.46	0.507	0.549	0.475	0.433	0.389	0.315	0.387	0.33	0.334	0.279	0.204	0.713	0.651	0.711	0.608	0.408
